This experiment deals with nude mice, A549 intrarenal xenograft, tumor weight change. Kind of experiment: NCI In Vivo Anticancer Drug Screen. Data for tumor model A549 Human Adenocarcinoma of Lung with characteristics of Type II Alveolar Epithelial cells (intrarenal inoculation) in NU/NU BALB/C (nude) mice. As to conditions: endpoint: mean tumor weight change, schedule: Q04DX003 (ip), higher = larger tumour. The method in brief:
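Activity is expressed as T/C: the treated-group value over the vehicle-treated control value. The measure was survival or tumor size in mice carrying transplantable tumors.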

[1] abbreviates: dose: 100.0 mg/kg/injection, vehicle: saline with Tween-80.
Where [2] appears, read: dose: 200.0 mg/kg/injection, vehicle: saline with Tween-80.
Where [3] appears, read: dose: 150.0 mg/kg/injection, vehicle: Klucel (hydroxypropylcellulose) (HPC).
[4] abbreviates: dose: 300.0 mg/kg/injection, vehicle: Klucel (hydroxypropylcellulose) (HPC).
The mark [5] stands for this setting: dose: 75.0 mg/kg/injection, vehicle: saline with Tween-80.
[6] abbreviates: dose: 150.0 mg/kg/injection, vehicle: saline with Tween-80.
Where [7] appears, read: dose: 75.0 mg/kg/injection, vehicle: Klucel (hydroxypropylcellulose) (HPC).

SMILES strings stand for the structures. Where “and” joins values, the source holds several entries; their conditions need not be identical. Equal values may be shown once. Records with an inconclusive call do not appear. Residues, ends and D or L forms follow the SMILES beside them. *: point of attachment. Trt = c1ccc(C(c2ccccc2)(c2ccccc2)*)cc1; Cbz = O=C(OCc1ccccc1)*; Bn = c1ccc(C*)cc1; βAla = NCCC(=O)O

As to `ClC1(Cl)Cc2ccccc21`, the T/C reads like this: (dose: 50.0 mg/kg/injection, vehicle: saline with Tween-80) 119 % of control; under setting [1], 57 % of control; under setting [2], 119 % of control.
As to `Cc1nc2c(N)cc(Cl)cc2[nH]1`, the T/C was 89 % of control under setting [1] and 95 % of control under setting [2].
For the compound `CCOC(=O)/C=C/C(=O)N1CCN(C(=O)/C=C/C(=O)OCC)C(C)C1` (stereo unspecified), the T/C runs as follows: under setting [3], 50 % of control; under setting [4], 71 % of control; (dose: 600.0 mg/kg/injection, vehicle: Klucel (hydroxypropylcellulose) (HPC)) 49 % of control.
Take `O=C1CN(CCN2CC(=O)N(CN3CCOCC3)C(=O)C2)CC(=O)N1CN1CCOCC1`: the T/C reads like this: (dose: 37.5 mg/kg/injection, vehicle: saline with Tween-80) 51 % of control; under setting [5], 60 % of control.
Consider `COC(=O)C(CSC(c1ccccc1)(c1ccccc1)c1ccccc1)NC(=O)C(CSCc1ccccc1)NC(=O)CCNC(=O)OCc1ccccc1` (stereo unspecified) ({Cbz-βAla}-Cys(Bn)-Cys(Trt)-OMe; configuration not given here), for which the T/C (dose: 100.0 mg/kg/injection, vehicle: Klucel + Tween-80) is 153 % of control; the T/C (dose: 200.0 mg/kg/injection, vehicle: Klucel + Tween-80) was 112 % of control; the T/C (dose: 400.0 mg/kg/injection, vehicle: Klucel + Tween-80) is 161 % of control; the T/C (dose: 800.0 mg/kg/injection, vehicle: Klucel + Tween-80) is 109 % of control.
Turning to `CN(C)CCNc1ccc(CO)c2sc3ccc(O)cc3c(=O)c12`, the T/C was 5 % of control (dose: 54.0 mg/kg/injection, vehicle: saline with Tween-80); 3 % of control (dose: 90.0 mg/kg/injection, vehicle: saline with Tween-80); 2 % of control and 12 % of control under setting [6]; -36 % of control (dose: 250.0 mg/kg/injection, vehicle: saline with Tween-80).
Consider `[Cl][Pt][Cl].[NH-]C(CO)C(=O)O` (stereo unspecified), for which the T/C is, setting by setting: (dose: 37.5 mg/kg/injection, vehicle: water) 93 % of control; (dose: 75.0 mg/kg/injection, vehicle: water) 247 % of control; (dose: 150.0 mg/kg/injection, vehicle: water) 63 % of control.
As for `O=C(O)c1cc(C(=O)O)c(C(=O)O)cc1C(=O)O.[NH2-].[NH2-].[NH2-].[NH2-].[Pt+2].[Pt+2]`, for the setting “dose: 12.5 mg/kg/injection, vehicle: water”, the T/C was 102 % of control.
With `C=CCNC(=O)c1ccccc1SC(C)=O`, the T/C under setting [5] was 104 % of control; the T/C under setting [6] was 94 % of control; the T/C (dose: 300.0 mg/kg/injection, vehicle: saline with Tween-80) is 96 % of control; the T/C (dose: 450.0 mg/kg/injection, vehicle: saline with Tween-80) is 61 % of control.
In the case of `O=C(NC(Cc1ccc(I)cc1)C(=O)O)c1ccc(Br)cc1` (stereo unspecified), the T/C is 51 % of control (dose: 37.5 mg/kg/injection, vehicle: other); 78 % of control (dose: 37.5 mg/kg/injection, vehicle: sodium bicarbonate); 7 % of control (dose: 75.0 mg/kg/injection, vehicle: other); 103 % of control (dose: 75.0 mg/kg/injection, vehicle: sodium bicarbonate); 9 % of control (dose: 150.0 mg/kg/injection, vehicle: other); 83 % of control (dose: 150.0 mg/kg/injection, vehicle: sodium bicarbonate).
For `O=C(Nc1cccc(O)c1)C(Cl)=C(Cl)Cl`, the T/C by setting is: (dose: 18.0 mg/kg/injection, vehicle: other) 46 % of control; (dose: 25.0 mg/kg/injection, vehicle: DMSO) 108 % of control; (dose: 30.0 mg/kg/injection, vehicle: other) 50 % of control and 74 % of control; (dose: 50.0 mg/kg/injection, vehicle: DMSO) 18 % of control; (dose: 50.0 mg/kg/injection, vehicle: other) 76 % of control.
For the compound `C/C=C/CC(C)C(O)C1C(=O)NC(CC)C(=O)N(C)CC(=O)N(C)C(CC(C)C)C(=O)NC(C(C)C)C(=O)N(C)C(CC(C)C)C(=O)NC(C)C(=O)NC(C)C(=O)N(C)C(CC(C)C)C(=O)N(C)C(CC(C)C)C(=O)N(C)C(C(C)C)C(=O)N1C` (stereo unspecified), the T/C is, setting by setting: under setting [7], 158 % of control; under setting [3], 65 % of control.
As for `O=c1[nH]cc(F)c(=O)[nH]1`, the T/C by setting is: (dose: 25.0 mg/kg/injection, vehicle: saline) 207 % of control; (dose: 100.0 mg/kg/injection, vehicle: saline) 28 % of control.
Consider `C=CCOc1cc2c(cc1C(C)c1ccc(OC)cc1)OCO2` (stereo unspecified), for which the T/C was 58 % of control under setting [7]; 94 % of control and 77 % of control under setting [3].
For the compound `Cn1c(=S)sc2nc3ccccc3n2c1=S`, the T/C was 83 % of control (dose: 30.0 mg/kg/injection, vehicle: saline with Tween-80); 50 % of control (dose: 60.0 mg/kg/injection, vehicle: saline with Tween-80); 73 % of control (dose: 120.0 mg/kg/injection, vehicle: saline with Tween-80).
Turning to `[CH3][Sn]([CH3])([Cl])[c]1cc[c]([Sn]([CH3])([CH3])[Cl])cc1`, the T/C is, setting by setting: (dose: 1.25 mg/kg/injection, vehicle: saline) 84 % of control; (dose: 2.5 mg/kg/injection, vehicle: saline) 160 % of control; (dose: 5.0 mg/kg/injection, vehicle: saline) 70 % of control.
As for `Cc1ccc(C(=O)NC2C(=O)NC(C(C)C)C(=O)N3CCCC3C(=O)N(C)CC(=O)N(C)C(C(C)C)C(=O)OC2C)c2c1Oc1c(c(C(=O)NC3C(=O)NC(C(C)C)C(=O)N4CCCC4C(=O)N(C)CC(=O)N(C)C(C(C)C)C(=O)OC3C)c3nc(-c4ccccc4)c(=O)oc3c1C)N2` (stereo unspecified), the T/C reads like this: (dose: 0.36 mg/kg/injection, vehicle: water) 101 % of control; (dose: 0.5 mg/kg/injection, vehicle: water) 61 % of control; (dose: 0.6 mg/kg/injection, vehicle: water) 94 % of control; (dose: 1.67 mg/kg/injection, vehicle: water) 62 % of control.
Take `C=C(CO)C(=O)OC1CC(=C)C2CC(O)C(=C)C2[C@H]2OC(=O)C(=C)C12` (stereo partly specified): the T/C (dose: 2.36 mg/kg/injection, vehicle: saline + alcohol) was 64 % of control; the T/C (dose: 4.72 mg/kg/injection, vehicle: saline + alcohol) is 99 % of control; the T/C (dose: 8.75 mg/kg/injection, vehicle: saline + alcohol) was 86 % of control.
As for `O=C1c2ccccc2C(Cl)(c2ccc(Cl)cc2)c2ccc(Cl)cc21` (stereo unspecified), the T/C under setting [6] is 244 % of control.
On to `COc1cc(C)c(C2NC(=O)c3ccccc3N2)cc1C` (stereo unspecified), for which the T/C reads like this: under setting [7], 5 % of control; (dose: 129.6 mg/kg/injection, vehicle: Klucel (hydroxypropylcellulose) (HPC)) 161 % of control; under setting [3], 47 % of control; under setting [4], 6 % of control; (dose: 360.0 mg/kg/injection, vehicle: Klucel (hydroxypropylcellulose) (HPC)) 112 % of control; (dose: 1000.0 mg/kg/injection, vehicle: Klucel (hydroxypropylcellulose) (HPC)) 65 % of control.
For `c1ccc2c3c(c4c(c2c1)CN(C1CCCCC1)CO4)OCN(C1CCCCC1)C3`, the T/C (dose: 37.5 mg/kg/injection, vehicle: distilled water + Tween-80) is 65 % of control.
As for `COc1cc(C(C)c2cc3c(cc2OCCO)OCO3)cc(OC)c1OC` (stereo unspecified), the T/C was 117 % of control (dose: 125.0 mg/kg/injection, vehicle: suspension in saline) and 72 % of control (dose: 250.0 mg/kg/injection, vehicle: suspension in saline).

Values taken from PubChem BioAssay AID278 (DTP/NCI, 2004).
